Reference: PubChem BioAssay AID192 (DTP/NCI, 2004)
Where “and” joins values, the source holds several entries; their conditions need not be identical. Identical values can stand only once. Toxic doses and inconclusive results are not listed.

System: BDF1 mice, B16 melanoma ip, median survival T/C
Test: NCI In Vivo Anticancer Drug Screen. Data for tumor model B16 Melanoma (intraperitoneal) in B6D2F1 (BDF1) mice
Conditions: endpoint: median survival time, higher = longer survival
How it was run: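 Mice with transplantable tumors; drug vs vehicle groups; endpoint survival or tumor size; value = T/C.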

[1] = dose: 75.0 mg/kg/injection, schedule: Q04DX003 (ip), vehicle: saline with Tween-80
[2] = dose: 25.0 mg/kg/injection, schedule: Q01DX009 (ip), vehicle: Klucel (hydroxypropylcellulose) (HPC)
[3] = dose: 50.0 mg/kg/injection, schedule: Q01DX009 (ip), vehicle: Klucel (hydroxypropylcellulose) (HPC)
[4] = dose: 25.0 mg/kg/injection, schedule: Q01DX009 (ip), vehicle: saline with Tween-80
[5] = dose: 50.0 mg/kg/injection, schedule: Q01DX009 (ip), vehicle: saline with Tween-80
[6] = dose: 100.0 mg/kg/injection, schedule: Q01DX009 (ip), vehicle: saline with Tween-80
[7] = dose: 100.0 mg/kg/injection, schedule: Q04DX003 (ip), vehicle: saline
[8] = dose: 12.5 mg/kg/injection, schedule: Q01DX009 (ip), vehicle: Klucel (hydroxypropylcellulose) (HPC)
[9] = dose: 100.0 mg/kg/injection, schedule: Q01DX009 (ip), vehicle: Klucel (hydroxypropylcellulose) (HPC)
[10] = dose: 200.0 mg/kg/injection, schedule: Q01DX009 (ip), vehicle: Klucel (hydroxypropylcellulose) (HPC)
[11] = dose: 400.0 mg/kg/injection, schedule: Q01DX009 (ip), vehicle: Klucel (hydroxypropylcellulose) (HPC)
[12] = dose: 12.5 mg/kg/injection, schedule: Q01DX009 (ip), vehicle: saline with Tween-80
[13] = dose: 200.0 mg/kg/injection, schedule: Q01DX009 (ip), vehicle: saline with Tween-80

With `CCOC(=O)c1ccc(N)cc1` the T/C (dose: 37.5 mg/kg/injection, schedule: Q01DX009 (ip), vehicle: saline with Tween-80) was 121 % of control, the T/C (dose: 37.5 mg/kg/injection, schedule: Q04DX003 (ip), vehicle: saline with Tween-80) was 102 % of control and the T/C (dose: 75.0 mg/kg/injection, schedule: Q01DX009 (ip), vehicle: saline with Tween-80) was 112 % of control. The T/C [1] was 91 % of control, the T/C (dose: 150.0 mg/kg/injection, schedule: Q01DX009 (ip), vehicle: saline with Tween-80) was 107 % of control and the T/C (dose: 150.0 mg/kg/injection, schedule: Q04DX003 (ip), vehicle: saline with Tween-80) was 93 % of control.

`CCc1c2cc3c(cc2cc2c4cc5c(cc4cc[n+]12)OCO5)OCO3` (tested in a mixture with another compound) was tested, and the T/C (dose: 1.56 mg/kg/injection, schedule: Q01DX009 (ip), vehicle: Klucel (hydroxypropylcellulose) (HPC)) was 103 % of control, the T/C (dose: 3.13 mg/kg/injection, schedule: Q01DX009 (ip), vehicle: Klucel (hydroxypropylcellulose) (HPC)) was 106 % of control and the T/C (dose: 6.25 mg/kg/injection, schedule: Q01DX009 (ip), vehicle: Klucel (hydroxypropylcellulose) (HPC)) was 106 % of control.

`O=CC1CO1` (stereo not drawn) was tested, and the T/C (dose: 12.5 mg/kg/injection, schedule: Q01DX009 (ip), vehicle: saline sonified) was 90 % of control, the T/C (dose: 25.0 mg/kg/injection, schedule: Q01DX009 (ip), vehicle: saline sonified) was 90 % of control and the T/C (dose: 50.0 mg/kg/injection, schedule: Q01DX009 (ip), vehicle: saline sonified) was 97 % of control.

With `O=C(NC(CSC(c1ccccc1)c1ccccc1)C(=O)O)OCc1ccccc1` (stereo not drawn) the T/C [2] was 100 % of control and the T/C [3] was 100 % of control.

`CCC(C#N)=C1CCCCC1` was tested, and the T/C [4] was 102 % of control, the T/C [5] was 106 % of control and the T/C [6] was 114 % of control.

With `CNC(=O)c1cccc2c(Nc3ccc(NS(C)(=O)=O)cc3OC)c3cccc(C)c3nc12` the T/C (dose: 1.5 mg/kg/injection, schedule: Q01DX009 (ip), vehicle: water) was 162 % of control and the T/C (dose: 3.0 mg/kg/injection, schedule: Q01DX009 (ip), vehicle: water) was 201 % of control.

For `CCOC(=O)C1(C)OCCO1`, the T/C [7] was 95 % of control, the T/C (dose: 200.0 mg/kg/injection, schedule: Q04DX003 (ip), vehicle: saline) was 104 % of control and the T/C (dose: 400.0 mg/kg/injection, schedule: Q04DX003 (ip), vehicle: saline) was 104 % of control.

For `NC(=O)OCCCc1ccccc1`, the T/C [8] was 100 % of control, the T/C [2] was 94 % of control and the T/C [3] was 100 % of control. For the same molecule, the T/C [9] was 107 % of control.

In the case of `Cc1ccccc1N(CC1CO1)CC1CO1` (stereo not drawn), the T/C [5] is reported as 152 % of control and the T/C [6] is reported as 180 % of control.

With `COc1ccc(C(=O)c2ccc(C)cc2)cc1` the T/C [9] was 97 % of control, the T/C (dose: 100.0 mg/kg/injection, schedule: Q04DX003 (ip), vehicle: Klucel (hydroxypropylcellulose) (HPC)) was 88 % of control and the T/C [10] was 93 % of control. For the same molecule, the T/C (dose: 200.0 mg/kg/injection, schedule: Q04DX003 (ip), vehicle: Klucel (hydroxypropylcellulose) (HPC)) was 95 % of control, the T/C [11] was 93 % of control and the T/C (dose: 400.0 mg/kg/injection, schedule: Q04DX003 (ip), vehicle: Klucel (hydroxypropylcellulose) (HPC)) was 102 % of control.

`O=[N+]([O-])c1cccc([N+](=O)[O-])c1Cl` was tested, and the T/C (dose: 10.0 mg/kg/injection, schedule: Q01DX009 (ip), vehicle: saline with Tween-80) was 99 % of control, the T/C (dose: 20.0 mg/kg/injection, schedule: Q01DX009 (ip), vehicle: saline with Tween-80) was 94 % of control and the T/C (dose: 40.0 mg/kg/injection, schedule: Q01DX009 (ip), vehicle: saline with Tween-80) was 95 % of control. For the same molecule, the T/C (dose: 80.0 mg/kg/injection, schedule: Q01DX009 (ip), vehicle: saline with Tween-80) was 93 % of control and the T/C (dose: 160.0 mg/kg/injection, schedule: Q01DX009 (ip), vehicle: saline with Tween-80) was 91 % of control.

`NC(CCCC(=O)O)P(=O)(O)O` (stereo not drawn) was tested, and the T/C [3] was 98 % of control and the T/C [9] was 98 % of control.

In the case of `O=[N+]([O-])c1ccc(N2CCCC2)c([N+](=O)[O-])c1`, the T/C [9] is reported as 93 % of control, the T/C [10] is reported as 100 % of control and the T/C [11] is reported as 100 % of control.

For `CCc1nc(N)nc(N)c1-c1ccc(Cl)c(Cl)c1`, the T/C (dose: 4.0 mg/kg/injection, schedule: Q01DX009 (ip), vehicle: Klucel (hydroxypropylcellulose) (HPC)) was 95 % of control, the T/C (dose: 8.0 mg/kg/injection, schedule: Q01DX009 (sc), vehicle: Klucel (hydroxypropylcellulose) (HPC)) was 123 % of control and the T/C (dose: 64.0 mg/kg/injection, schedule: Q01DX001 (ip), vehicle: Klucel (hydroxypropylcellulose) (HPC)) was 102 % of control.

In the case of `Cc1cnc(=S)[nH]c1N`, the T/C [3] is reported as 108 % of control, the T/C [9] is reported as 97 % of control and the T/C [10] is reported as 94 % of control.

`O=CN(SSN(C=O)C1CCCCC1)C1CCCCC1` was tested, and the T/C [12] was 110 % of control, the T/C [4] was 100 % of control and the T/C [5] was 98 % of control. The T/C [6] was 102 % of control and the T/C [13] was 88 % of control.

In the case of `C=C1Sc2ccccc2N1C`, the T/C [8] is reported as 96 % of control and the T/C [2] is reported as 94 % of control.

With `CC1=CC(=O)c2ccccc2C1=O` the T/C [4] was 108 % of control and 118 % of control.

In the case of `CCCCC(CC)COC(=O)/C=C/C(=O)OCC(CC)CCCC` (stereo not drawn), the T/C [10] is reported as 90 % of control and the T/C [11] is reported as 87 % of control.

With `CN(C)N=Nc1ccc(S(N)(=O)=O)cc1` the T/C [2] was 116 % of control, the T/C [3] was 111 % of control and the T/C [9] was 98 % of control.

`Cc1cc(C)cc(OCC2CNC(=O)O2)c1` (stereo not drawn) was tested, and the T/C [2] was 94 % of control, the T/C [3] was 108 % of control and the T/C [9] was 91 % of control. The T/C [10] was 94 % of control and the T/C [11] was 100 % of control.

For `COc1ccc(CCN2CC(=O)NC(=O)C2)cc1OC`, the T/C [2] was 97 % of control, the T/C [3] was 91 % of control and the T/C [9] was 88 % of control. For the same molecule, the T/C [10] was 94 % of control and the T/C [11] was 91 % of control.

For `CCCCCCCC(N)=O`, the T/C [6] was 100 % of control and the T/C [13] was 106 % of control.

`CCC/C=C(/CC(=O)O)C(=O)O` was tested, and the T/C [1] was 100 % of control.

With `O=C(Nc1ccccc1)Oc1ccc(OCc2ccccc2)cc1` the T/C [12] was 96 % of control, the T/C [4] was 93 % of control and the T/C [5] was 92 % of control.

`CC(C)CC(NC(=O)OCc1ccccc1)C(=O)NC(Cc1c[nH]c2ccccc12)C(=O)O` (stereo not drawn) was tested, and the T/C [5] was 90 % of control, the T/C [6] was 96 % of control and the T/C [13] was 96 % of control. The T/C (dose: 400.0 mg/kg/injection, schedule: Q01DX009 (ip), vehicle: saline with Tween-80) was 98 % of control.

In the case of `CCN(CC)CC#CCCCCN(CC)CC`, the T/C (dose: 3.13 mg/kg/injection, schedule: Q01DX009 (ip), vehicle: saline) is reported as 95 % of control, the T/C (dose: 6.25 mg/kg/injection, schedule: Q01DX009 (ip), vehicle: saline) is reported as 97 % of control and the T/C (dose: 12.5 mg/kg/injection, schedule: Q01DX009 (ip), vehicle: saline) is reported as 90 % of control. The T/C (dose: 50.0 mg/kg/injection, schedule: Q01DX009 (ip), vehicle: saline) was 89 % of control.

In the case of `Nc1cc(Cl)c2cccnc2c1O`, the T/C (dose: 22.0 mg/kg/injection, schedule: Q01DX009 (ip), vehicle: saline) is reported as 115 % of control, the T/C (dose: 33.0 mg/kg/injection, schedule: Q01DX009 (ip), vehicle: saline) is reported as 120 % of control and the T/C (dose: 44.0 mg/kg/injection, schedule: Q04DX003 (ip), vehicle: saline) is reported as 106 % of control. For the same molecule, the T/C (dose: 66.0 mg/kg/injection, schedule: Q04DX003 (ip), vehicle: saline) was 106 % of control and the T/C [7] was 86 % of control.

`Cc1ccc(S(=O)(=O)N2CCn3ncc(C#N)c32)cc1` was tested, and the T/C [3] was 100 % of control, the T/C [9] was 103 % of control and the T/C [10] was 103 % of control. The T/C [11] was 96 % of control.

In the case of `c1ccc2c(c1)nnn1c3cnccc3nc21`, the T/C (dose: 1.56 mg/kg/injection, schedule: Q01DX009 (ip), vehicle: saline with Tween-80) is reported as 110 % of control, the T/C (dose: 3.12 mg/kg/injection, schedule: Q01DX009 (ip), vehicle: saline with Tween-80) is reported as 97 % of control and 111 % of control and the T/C (dose: 6.25 mg/kg/injection, schedule: Q01DX009 (ip), vehicle: saline with Tween-80) is reported as 93 % of control and 107 % of control. For the same molecule, the T/C [12] was 106 % of control and 121 % of control.

In the case of `CCOC(=O)C(=CN1CCCCCC1)C(=O)OCC`, the T/C [6] is reported as 102 % of control, the T/C (dose: 100.0 mg/kg/injection, schedule: Q04DX003 (ip), vehicle: saline with Tween-80) is reported as 97 % of control and the T/C [13] is reported as 101 % of control. For the same molecule, the T/C (dose: 200.0 mg/kg/injection, schedule: Q04DX003 (ip), vehicle: saline with Tween-80) was 95 % of control and the T/C (dose: 400.0 mg/kg/injection, schedule: Q04DX003 (ip), vehicle: saline with Tween-80) was 92 % of control.

`[Cl][Pt+2][Cl].[NH-]CC1(C[NH-])CCCC1` was tested, and the T/C (dose: 0.5 mg/kg/injection, schedule: Q01DX009 (ip), vehicle: saline) was 124 % of control, the T/C (dose: 1.0 mg/kg/injection, schedule: Q01DX009 (ip), vehicle: saline) was 112 % of control and the T/C (dose: 2.0 mg/kg/injection, schedule: Q01DX009 (ip), vehicle: saline) was 157 % of control.
